Source: ChEMBL document CHEMBL5338739, “Discovery of Dual Lysine Methyltransferase G9a and EZH2 Inhibitors with In Vivo Efficacy against Malignant Rhabdoid Tumor” (J Med Chem, 2023)
The source made the active and inactive calls. The rule behind the calls is not given here.

Key:
[1] = AUC (0 to 24 hrs) in Sprague-Dawley rat at 30 mg/kg, po administered for 24 hrs by HPLC analysis; type: ADME, organism-based; parameters: time 24 hrs, dose 30 mg/kg, route po; details: in vivo
[2] = Toxicity in BALB/c nude mouse xenografted with human RD cells assessed as effect on heart viscera index at 10 to 20 mg/kg, ip administered for 5 consecutive days followed by 2 rest days for 3 weeks; type: organism-based; details: in vivo, 504 h, dose 10-20 mg/kg
[3] = Tmax in Sprague-Dawley rat at 30 mg/kg, po administered for 24 hrs by HPLC analysis; type: ADME, organism-based; details: in vivo
[4] = test system: RD; assay: Antiproliferative activity against human RD cells assessed as reduction in clone formation rate at 5 uM for 1 to 2 weeks with fresh medium replacement for every 2 to 3 days by crystal violet staining based microscopic analysis; type: functional, cell-based; details: time 1-2 weeks
[5] = Cmax in Sprague-Dawley rat at 30 mg/kg, po administered for 24 hrs by HPLC analysis; type: ADME, organism-based; parameters: time 24 hrs, dose 30 mg/kg, route po; details: in vivo
[6] = Toxicity in BALB/c nude mouse xenografted with human RD cells assessed as effect on kidney viscera index at 10 to 20 mg/kg, ip administered for 5 consecutive days followed by 2 rest days for 3 weeks; type: organism-based; details: in vivo, 504 h, dose 10-20 mg/kg
[7] = test system: RD; assay: Downregulation of H3K9me2 expression in human RD cells at 5 uM incubated for 6 days by Western blotting analysis; type: functional, cell-based; details: time 6.0 day
[8] = test system: RD; assay: Downregulation of H3K4me2 expression in human RD cells at 5 uM incubated for 6 days by immunoblotting analysis; type: functional, cell-based; details: time 6.0 day
[9] = target: T1, Histone-lysine N-methyltransferase EZH2 (Homo sapiens, UniProt Q15910); assay: Binding affinity to EZH2 in human RD cells assessed as decrease in pronase E mediated EZH2 hydrolyzation incubated for 1 hr by DARTS analysis; type: cell-based; details: dose 5-20 µM
T1 sequence (Q15910 whole entry, looked up): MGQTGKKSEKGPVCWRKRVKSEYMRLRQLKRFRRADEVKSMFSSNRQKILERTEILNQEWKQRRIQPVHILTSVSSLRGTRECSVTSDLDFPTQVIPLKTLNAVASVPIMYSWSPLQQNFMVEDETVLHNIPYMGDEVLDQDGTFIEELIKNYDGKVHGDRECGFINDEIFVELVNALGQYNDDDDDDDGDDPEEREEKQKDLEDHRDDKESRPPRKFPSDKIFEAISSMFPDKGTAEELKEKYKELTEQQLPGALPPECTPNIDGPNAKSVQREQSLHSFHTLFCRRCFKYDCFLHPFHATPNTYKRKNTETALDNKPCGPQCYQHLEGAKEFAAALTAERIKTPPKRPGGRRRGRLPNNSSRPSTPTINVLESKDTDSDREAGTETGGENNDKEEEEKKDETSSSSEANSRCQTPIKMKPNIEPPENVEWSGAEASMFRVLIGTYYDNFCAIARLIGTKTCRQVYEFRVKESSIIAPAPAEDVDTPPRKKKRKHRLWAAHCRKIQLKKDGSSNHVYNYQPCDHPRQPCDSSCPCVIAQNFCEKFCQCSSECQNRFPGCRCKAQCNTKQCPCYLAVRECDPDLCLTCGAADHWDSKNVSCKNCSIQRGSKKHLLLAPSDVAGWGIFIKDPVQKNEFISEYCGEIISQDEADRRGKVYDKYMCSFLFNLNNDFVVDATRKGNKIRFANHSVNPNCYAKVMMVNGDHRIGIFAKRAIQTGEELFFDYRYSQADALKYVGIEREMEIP

[10] = Half life in Sprague-Dawley rat at 30 mg/kg, po administered for 24 hrs by HPLC analysis; type: ADME, organism-based; details: in vivo
[11] = target: Histone-lysine N-methyltransferase, H3 lysine-79 specific (Homo sapiens) (UniProt Q8TEK3); assay: Inhibition of […] (unknown origin) using SAM as substrate at 10 uM by time-resolved fluorescence assay relative to control
Chain of Histone-lysine N-methyltransferase, H3 lysine-79 specific (Homo sapiens) (Q8TEK3 whole entry, looked up): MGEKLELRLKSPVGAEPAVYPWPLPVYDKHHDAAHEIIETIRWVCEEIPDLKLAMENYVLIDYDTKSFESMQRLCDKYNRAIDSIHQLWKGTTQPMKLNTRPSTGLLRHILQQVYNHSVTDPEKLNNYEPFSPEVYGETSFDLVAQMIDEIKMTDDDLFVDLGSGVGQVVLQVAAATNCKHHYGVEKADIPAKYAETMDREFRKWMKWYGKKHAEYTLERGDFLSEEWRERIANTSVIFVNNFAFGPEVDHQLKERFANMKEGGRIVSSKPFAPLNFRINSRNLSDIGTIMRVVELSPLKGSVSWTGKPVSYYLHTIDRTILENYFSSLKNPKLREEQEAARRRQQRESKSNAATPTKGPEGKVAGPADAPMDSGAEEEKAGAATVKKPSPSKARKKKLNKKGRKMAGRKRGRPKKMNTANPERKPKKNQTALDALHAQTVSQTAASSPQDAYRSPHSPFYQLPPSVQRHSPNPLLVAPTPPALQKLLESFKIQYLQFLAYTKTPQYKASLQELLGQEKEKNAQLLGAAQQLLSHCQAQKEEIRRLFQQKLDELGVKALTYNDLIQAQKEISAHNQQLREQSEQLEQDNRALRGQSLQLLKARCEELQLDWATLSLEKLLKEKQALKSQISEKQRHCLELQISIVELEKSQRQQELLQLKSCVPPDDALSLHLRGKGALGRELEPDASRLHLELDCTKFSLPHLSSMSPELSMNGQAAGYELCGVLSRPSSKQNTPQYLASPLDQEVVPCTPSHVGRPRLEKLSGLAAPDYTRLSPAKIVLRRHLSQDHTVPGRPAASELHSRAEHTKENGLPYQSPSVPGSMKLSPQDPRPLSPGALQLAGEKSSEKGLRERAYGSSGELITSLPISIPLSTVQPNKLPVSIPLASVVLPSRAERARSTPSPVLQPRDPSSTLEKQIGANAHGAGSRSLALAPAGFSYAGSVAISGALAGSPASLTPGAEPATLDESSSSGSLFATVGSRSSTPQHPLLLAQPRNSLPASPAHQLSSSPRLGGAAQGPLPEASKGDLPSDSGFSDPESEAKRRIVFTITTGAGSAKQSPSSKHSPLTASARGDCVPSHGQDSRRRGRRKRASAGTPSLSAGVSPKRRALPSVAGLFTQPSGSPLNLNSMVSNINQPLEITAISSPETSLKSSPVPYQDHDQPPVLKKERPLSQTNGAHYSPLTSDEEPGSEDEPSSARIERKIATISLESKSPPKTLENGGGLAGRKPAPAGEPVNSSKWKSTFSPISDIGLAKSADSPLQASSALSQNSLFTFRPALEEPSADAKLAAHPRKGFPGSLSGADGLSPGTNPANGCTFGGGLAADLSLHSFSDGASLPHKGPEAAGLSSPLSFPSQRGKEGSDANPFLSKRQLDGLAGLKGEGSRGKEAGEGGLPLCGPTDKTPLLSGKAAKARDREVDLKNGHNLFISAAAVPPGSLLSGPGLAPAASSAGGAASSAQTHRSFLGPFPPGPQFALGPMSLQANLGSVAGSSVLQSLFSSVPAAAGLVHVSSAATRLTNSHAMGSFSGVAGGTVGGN

[12] = Cytotoxicity against human MCF-10A cells assessed as reduction in cell viability incubated for 72 hrs by MTT assay; type: toxicity, cell-based
[13] = test system: RD; assay: Downregulation of H3K27me3 expression in human RD cells at 5 uM incubated for 6 days by Western blotting analysis; type: functional, cell-based; details: time 6.0 day
[14] = Oral bioavailability in Sprague-Dawley rat at 30 mg/kg administered for 24 hrs by HPLC analysis; type: ADME, organism-based; details: in vivo
[15] = Cmax in Sprague-Dawley rat at 10 mg/kg, iv administered for 12 hrs by HPLC analysis; type: ADME, organism-based; parameters: dose 10 mg/kg, time 12 hrs, route iv; details: in vivo
[16] = Clearance in Sprague-Dawley rat at 30 mg/kg, po administered for 24 hrs by HPLC analysis; type: ADME, organism-based; details: in vivo
[17] = Tmax in Sprague-Dawley rat at 10 mg/kg, iv administered for 12 hrs by HPLC analysis; type: ADME, organism-based; details: in vivo
[18] = test system: RD; assay: Downregulation of H3K79me3 expression in human RD cells at 5 uM incubated for 6 days by immunoblotting analysis; type: functional, cell-based; details: time 6.0 day
[19] = target: Histone-lysine N-methyltransferase SETD2 (Homo sapiens) (UniProt Q9BYW2); assay: Inhibition of SETD2 (unknown origin) using SAM as substrate at 10 uM by time-resolved fluorescence assay relative to control
Chain of Histone-lysine N-methyltransferase SETD2 (Homo sapiens) (Q9BYW2 whole entry): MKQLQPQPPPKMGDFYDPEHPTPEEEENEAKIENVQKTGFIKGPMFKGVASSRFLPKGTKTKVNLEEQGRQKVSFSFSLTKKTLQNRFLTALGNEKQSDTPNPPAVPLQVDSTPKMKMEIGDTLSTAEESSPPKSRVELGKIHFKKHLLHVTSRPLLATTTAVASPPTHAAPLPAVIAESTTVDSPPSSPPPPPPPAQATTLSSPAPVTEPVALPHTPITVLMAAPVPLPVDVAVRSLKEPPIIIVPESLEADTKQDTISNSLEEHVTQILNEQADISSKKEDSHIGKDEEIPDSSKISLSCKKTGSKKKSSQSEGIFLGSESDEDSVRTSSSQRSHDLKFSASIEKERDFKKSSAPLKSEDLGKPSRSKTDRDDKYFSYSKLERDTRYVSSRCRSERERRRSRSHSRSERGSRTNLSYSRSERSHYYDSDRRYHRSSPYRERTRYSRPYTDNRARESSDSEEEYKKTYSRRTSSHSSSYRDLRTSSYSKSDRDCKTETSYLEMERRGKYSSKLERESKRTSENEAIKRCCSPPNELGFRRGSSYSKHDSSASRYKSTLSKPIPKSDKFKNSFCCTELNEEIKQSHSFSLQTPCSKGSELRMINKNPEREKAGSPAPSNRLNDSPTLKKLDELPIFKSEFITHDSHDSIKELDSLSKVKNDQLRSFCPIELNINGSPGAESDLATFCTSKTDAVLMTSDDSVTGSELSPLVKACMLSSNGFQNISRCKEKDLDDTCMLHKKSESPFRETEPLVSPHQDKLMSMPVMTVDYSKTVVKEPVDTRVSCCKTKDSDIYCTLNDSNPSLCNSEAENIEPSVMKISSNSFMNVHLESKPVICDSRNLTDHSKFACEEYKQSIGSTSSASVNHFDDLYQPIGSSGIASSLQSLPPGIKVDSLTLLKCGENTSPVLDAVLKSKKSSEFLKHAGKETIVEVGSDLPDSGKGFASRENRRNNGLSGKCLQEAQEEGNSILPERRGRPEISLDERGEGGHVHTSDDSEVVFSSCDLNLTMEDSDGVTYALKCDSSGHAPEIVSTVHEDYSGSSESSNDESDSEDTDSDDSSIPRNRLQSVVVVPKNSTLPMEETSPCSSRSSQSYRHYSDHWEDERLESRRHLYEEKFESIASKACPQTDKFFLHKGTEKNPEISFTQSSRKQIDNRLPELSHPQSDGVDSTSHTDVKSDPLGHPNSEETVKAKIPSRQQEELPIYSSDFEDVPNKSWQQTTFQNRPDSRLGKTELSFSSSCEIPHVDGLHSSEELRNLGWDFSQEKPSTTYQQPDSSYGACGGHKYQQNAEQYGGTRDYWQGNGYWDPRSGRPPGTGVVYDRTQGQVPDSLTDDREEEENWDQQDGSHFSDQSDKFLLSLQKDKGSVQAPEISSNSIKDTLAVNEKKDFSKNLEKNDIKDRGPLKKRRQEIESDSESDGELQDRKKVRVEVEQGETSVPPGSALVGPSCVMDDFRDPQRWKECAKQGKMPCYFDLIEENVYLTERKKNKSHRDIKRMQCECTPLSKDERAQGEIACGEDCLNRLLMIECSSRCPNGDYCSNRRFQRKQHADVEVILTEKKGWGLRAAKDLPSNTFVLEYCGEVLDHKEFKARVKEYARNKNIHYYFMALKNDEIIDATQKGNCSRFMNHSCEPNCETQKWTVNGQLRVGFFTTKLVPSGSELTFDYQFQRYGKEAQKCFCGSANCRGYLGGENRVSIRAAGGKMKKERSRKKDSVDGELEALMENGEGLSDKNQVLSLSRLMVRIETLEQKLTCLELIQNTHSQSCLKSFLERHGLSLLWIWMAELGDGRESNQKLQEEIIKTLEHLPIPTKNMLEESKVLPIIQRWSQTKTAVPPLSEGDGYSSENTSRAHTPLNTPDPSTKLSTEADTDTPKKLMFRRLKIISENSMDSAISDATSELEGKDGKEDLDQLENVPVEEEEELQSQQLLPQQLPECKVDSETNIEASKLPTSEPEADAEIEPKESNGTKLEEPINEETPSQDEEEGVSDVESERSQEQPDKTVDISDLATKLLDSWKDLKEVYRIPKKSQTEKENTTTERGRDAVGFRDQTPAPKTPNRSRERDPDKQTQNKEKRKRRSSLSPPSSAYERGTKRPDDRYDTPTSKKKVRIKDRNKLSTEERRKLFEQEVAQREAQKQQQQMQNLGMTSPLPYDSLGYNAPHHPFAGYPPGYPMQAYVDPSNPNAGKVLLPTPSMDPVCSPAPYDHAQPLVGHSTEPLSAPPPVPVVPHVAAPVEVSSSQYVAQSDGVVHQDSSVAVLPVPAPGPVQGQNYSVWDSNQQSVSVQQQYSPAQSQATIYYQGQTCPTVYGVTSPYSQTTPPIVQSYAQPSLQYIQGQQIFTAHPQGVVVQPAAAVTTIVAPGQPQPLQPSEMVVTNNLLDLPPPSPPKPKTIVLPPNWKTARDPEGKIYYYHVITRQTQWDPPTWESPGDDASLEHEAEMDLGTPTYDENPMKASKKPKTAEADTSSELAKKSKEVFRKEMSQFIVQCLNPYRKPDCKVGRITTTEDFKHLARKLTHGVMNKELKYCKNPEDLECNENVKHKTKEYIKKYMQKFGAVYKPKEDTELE

[20] = Toxicity in BALB/c nude mouse xenografted with human RD cells assessed as effect on liver viscera index at 10 to 20 mg/kg, ip administered for 5 consecutive days followed by 2 rest days for 3 weeks; type: organism-based; details: in vivo, 504 h, dose 10-20 mg/kg
[21] = Cytotoxicity against human L02 cells assessed as reduction in cell viability incubated for 72 hrs by MTT assay; type: toxicity, cell-based
[22] = target: T1, Histone-lysine N-methyltransferase EZH2; assay: Binding affinity to EZH2 in human RD cells assessed as increase in protein thermal stability at 5 uM incubated for 4 hrs by CETSA based Western blot analysis; type: cell-based
[23] = target: Histone-lysine N-methyltransferase SETDB1 (Homo sapiens) (UniProt Q15047); assay: Inhibition of SETDB1 (unknown origin) using SAM as substrate at 10 uM by time-resolved fluorescence assay relative to control
[24] = target: T2, Histone-lysine N-methyltransferase EHMT2 (Homo sapiens) (UniProt Q96KQ7); assay: Binding affinity to recombinant EHMT2 G9a in human RD cells assessed as increase in protein thermal stability at 5 uM incubated for 4 hrs by CETSA based Western blot analysis; type: cell-based
T2 sequence (whole entry): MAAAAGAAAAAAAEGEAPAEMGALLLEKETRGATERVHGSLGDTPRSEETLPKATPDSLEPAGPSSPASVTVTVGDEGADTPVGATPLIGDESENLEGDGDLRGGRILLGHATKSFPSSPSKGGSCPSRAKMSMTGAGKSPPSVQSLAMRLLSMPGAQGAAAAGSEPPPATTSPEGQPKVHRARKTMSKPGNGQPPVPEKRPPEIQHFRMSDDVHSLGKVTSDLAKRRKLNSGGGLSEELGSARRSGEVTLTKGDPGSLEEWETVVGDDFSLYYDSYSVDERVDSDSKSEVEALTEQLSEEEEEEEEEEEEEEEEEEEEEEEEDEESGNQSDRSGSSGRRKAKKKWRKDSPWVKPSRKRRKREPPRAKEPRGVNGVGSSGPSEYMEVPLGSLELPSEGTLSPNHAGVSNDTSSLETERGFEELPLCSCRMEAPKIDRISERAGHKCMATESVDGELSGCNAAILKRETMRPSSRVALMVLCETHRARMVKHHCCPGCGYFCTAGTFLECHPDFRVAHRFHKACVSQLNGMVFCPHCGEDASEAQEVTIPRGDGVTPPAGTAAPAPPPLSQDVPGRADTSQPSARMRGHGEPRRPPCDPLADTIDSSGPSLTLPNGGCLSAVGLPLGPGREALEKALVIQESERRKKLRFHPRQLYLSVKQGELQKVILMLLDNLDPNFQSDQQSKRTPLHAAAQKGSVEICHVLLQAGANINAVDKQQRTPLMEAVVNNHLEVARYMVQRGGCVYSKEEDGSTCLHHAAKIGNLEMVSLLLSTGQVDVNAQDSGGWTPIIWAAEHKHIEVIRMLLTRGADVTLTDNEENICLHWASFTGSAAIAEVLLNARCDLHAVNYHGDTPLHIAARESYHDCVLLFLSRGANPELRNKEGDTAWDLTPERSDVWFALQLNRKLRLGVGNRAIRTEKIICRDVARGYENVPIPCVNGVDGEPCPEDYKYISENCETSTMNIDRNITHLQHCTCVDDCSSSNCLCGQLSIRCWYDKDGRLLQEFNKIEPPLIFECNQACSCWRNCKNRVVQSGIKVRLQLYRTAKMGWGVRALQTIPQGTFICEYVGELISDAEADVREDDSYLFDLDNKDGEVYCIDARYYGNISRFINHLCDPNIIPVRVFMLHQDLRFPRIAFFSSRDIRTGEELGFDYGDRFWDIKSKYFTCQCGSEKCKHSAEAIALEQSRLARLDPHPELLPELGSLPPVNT

[25] = Toxicity in BALB/c nude mouse xenografted with human RD cells assessed as body weight fluctuations at 10 to 20 mg/kg, ip administered for 5 consecutive days followed by 2 rest days for 3 weeks; type: organism-based; details: in vivo, 504 h, dose 10-20 mg/kg

COc1cc2c(NCc3c(C)cc(C)[nH]c3=O)nc(N3CCC(F)(F)CC3)nc2cc1OCCCN1CCCC1
AUC(0-t) at 24 h [1]: 5350 ng·h/mL | Activity [2]: Non-Toxic | Tmax [3]: 41.4 min | Activity [4]: Active | Cmax [5]: 3180 ng/mL | Activity [6]: Non-Toxic | Activity [7]: Active | Activity [8]: inactive | Activity [9]: Dose-Dependent Effect | half-life [10]: 241 min | inhibition [11]: -5.87% | CC50 at 72 h [12]: > 100 µM | Activity [13]: Active | bioavailability [14]: 92% | Cmax [15]: 1380 ng/mL | CL/F [16]: 59.7 mL/min/kg | Tmax [17]: 10.2 min | Activity [18]: inactive | inhibition [19]: -5.18% | Activity [20]: Non-Toxic | CC50 at 72 h [21]: > 100 µM | Activity [22]: Active | inhibition [23]: 7.79% | Activity [24]: Active | Activity [25]: Non-Toxic
